18 compounds from ChEMBL document CHEMBL5154944, “Discovery of Aryloxyphenyl-Heptapeptide Hybrids as Potent and Selective Matrix Metalloproteinase-2 Inhibitors for the Treatment of Idiopathic Pulmonary Fibrosis” (J Med Chem, 2022) can be followed below.

The species entered for one experiment is Homo sapiens. The experiment is described as follows: Selectivity ratio of IC50 for recombinant human MMP12 to IC50 for recombinant human MMP2.
The target in experiment [1] is 72 kDa type IV collagenase (Homo sapiens, UniProt P08253).
The target of another experiment is Collagenase 3 (Homo sapiens, UniProt P45452).

Non-standard residues stand in square brackets, D forms with d. Residues, ends and D or L forms follow the SMILES beside them. *: point of attachment. Benzoyl(4-OPh(4-CONH2)) = NC(=O)c1ccc(Oc2ccc(C(=O)*)cc2)cc1; Benzenesulfonyl(4-OPh) = O=S(=O)(c1ccc(Oc2ccccc2)cc1)*; Benzenesulfonyl(4-Ph) = O=S(=O)(c1ccc(-c2ccccc2)cc1)*; X1 = O=C(CCCCS(=O)(=O)c1ccc(Oc2ccccc2)cc1)*; Benzoyl(4-OPh) = O=C(c1ccc(Oc2ccccc2)cc1)*; X2 = O=C(c1ccc(Oc2ccc(F)cc2)cc1)*; NMeI = CC[C@H](C)[C@H](NC)C(=O)O; NMeE = CN[C@@H](CCC(=O)O)C(=O)O; NMeL = CN[C@@H](CC(C)C)C(=O)O; NMeM = CN[C@@H](CCSC)C(=O)O; NMeV = CN[C@H](C(=O)O)C(C)C; β3hP = O=C(O)C[C@@H]1CCCN1; Orn = NCCC[C@H](N)C(=O)O; Dab = NCC[C@H](N)C(=O)O; Dap = NC[C@H](N)C(=O)O; Ahx = NCCCCCC(=O)O; Ava = NCCCCC(=O)O; GABA = NCCCC(=O)O; βAla = NCCC(=O)O

Chain of 72 kDa type IV collagenase (P08253 whole entry): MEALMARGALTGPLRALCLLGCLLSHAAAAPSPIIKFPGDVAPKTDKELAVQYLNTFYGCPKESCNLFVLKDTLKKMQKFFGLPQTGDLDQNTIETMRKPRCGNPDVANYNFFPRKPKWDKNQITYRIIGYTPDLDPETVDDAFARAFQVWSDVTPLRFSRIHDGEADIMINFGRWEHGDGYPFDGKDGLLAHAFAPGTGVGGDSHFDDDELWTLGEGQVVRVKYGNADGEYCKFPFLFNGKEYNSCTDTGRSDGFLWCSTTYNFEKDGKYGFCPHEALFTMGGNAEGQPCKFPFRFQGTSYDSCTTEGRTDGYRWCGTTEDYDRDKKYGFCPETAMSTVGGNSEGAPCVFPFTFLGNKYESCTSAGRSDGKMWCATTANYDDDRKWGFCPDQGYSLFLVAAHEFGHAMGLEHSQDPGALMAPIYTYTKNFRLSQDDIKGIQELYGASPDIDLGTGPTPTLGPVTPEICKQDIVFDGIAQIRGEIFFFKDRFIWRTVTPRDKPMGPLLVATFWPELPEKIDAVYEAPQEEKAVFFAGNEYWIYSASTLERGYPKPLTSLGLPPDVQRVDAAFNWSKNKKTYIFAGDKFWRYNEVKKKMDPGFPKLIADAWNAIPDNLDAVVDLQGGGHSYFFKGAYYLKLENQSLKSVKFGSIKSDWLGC

As to `CC(C)C[C@H](NC(=O)[C@H](CCN)NC(=O)[C@H](CC(=O)O)NC(=O)[C@H](CC(N)=O)NC(=O)CCCCCNC(=O)c1ccc(Oc2ccc(C(N)=O)cc2)cc1)C(=O)N(C)[C@@H](CCC(=O)O)C(=O)N1CCC[C@H]1CC(N)=O` ({Benzoyl(4-OPh(4-CONH2))-Ahx}-ND[Dab]L[NMeE][β3hP]-NH2), the Ratio IC50 in the experiment filed under Homo sapiens stood at 15600. In addition, the IC50 (commonly the concentration that inhibits the measured activity by half) in experiment [1] is 0.13 nM; at Collagenase 3 it was 192 nM.

Turning to `CC(C)C[C@H](NC(=O)[C@H](C)NC(=O)[C@H](CC(=O)O)NC(=O)[C@H](CC(N)=O)NC(=O)CCCNS(=O)(=O)c1ccc(Oc2ccccc2)cc1)C(=O)N(C)[C@H](C(=O)N1CCC[C@H]1CC(N)=O)C(C)C` ({Benzenesulfonyl(4-OPh)-GABA}-NDAL[NMeV][β3hP]-NH2), the Ratio IC50 in the experiment listed under Homo sapiens amounted to 122. Further, the 50% inhibitory concentration (IC50) in experiment [1] is 0.046 nM; at Collagenase 3 it was 25 nM.

With `CC(C)C[C@H](NC(=O)[C@H](C)NC(=O)[C@H](CC(=O)O)NC(=O)[C@H](CC(N)=O)NC(=O)CCCNS(=O)(=O)c1ccc(Oc2ccccc2)cc1)C(=O)N(C)[C@H](C(=O)N1CCC[C@H]1C(N)=O)C(C)C` ({Benzenesulfonyl(4-OPh)-GABA}-NDAL[NMeV]P-NH2), the Ratio IC50 in the experiment listed under Homo sapiens stood at 282. In addition, the values for the IC50 (in experiment [1]; against Collagenase 3) were 0.078 nM and 21 nM, respectively.

As to `CC(C)C[C@H](NC(=O)[C@H](C)NC(=O)[C@H](CC(=O)O)NC(=O)[C@H](CC(N)=O)NC(=O)CCCNS(=O)(=O)c1ccc(Oc2ccccc2)cc1)C(=O)N(C)[C@@H](CC(C)C)C(=O)N1CCC[C@H]1CC(N)=O` ({Benzenesulfonyl(4-OPh)-GABA}-NDAL[NMeL][β3hP]-NH2), the Ratio IC50 in the experiment filed under Homo sapiens was found to be 24. The IC50 in experiment [1] amounted to 0.055 nM; at Collagenase 3, 15 nM.

With `CC(C)C[C@H](NC(=O)[C@H](CCN)NC(=O)[C@H](CC(=O)O)NC(=O)[C@H](CC(N)=O)NC(=O)CCNC(=O)c1ccc(Oc2ccc(C(N)=O)cc2)cc1)C(=O)N(C)[C@@H](CCC(=O)O)C(=O)N1CCC[C@H]1CC(N)=O` ({Benzoyl(4-OPh(4-CONH2))-βAla}-ND[Dab]L[NMeE][β3hP]-NH2), the Ratio IC50 in the experiment listed under Homo sapiens worked out at 8390. Further, the IC50 in experiment [1] turned out to be 0.53 nM; on Collagenase 3, 146 nM.

On to `CSCC[C@H](NC(=O)[C@H](CC(C)C)NC(=O)[C@H](C)NC(=O)[C@H](CC(=O)O)NC(=O)[C@H](CC(N)=O)NC(=O)CCCNS(=O)(=O)c1ccc(Oc2ccccc2)cc1)C(=O)N1CCC[C@H]1C(N)=O` ({Benzenesulfonyl(4-OPh)-GABA}-NDALMP-NH2), for which the Ratio IC50 in the experiment listed under Homo sapiens was found to be 145. In addition, the IC50 in experiment [1] came out at 0.083 nM; on Collagenase 3 it was 55 nM.

As for `CC[C@H](C)[C@@H](C(=O)N1CCC[C@H]1CC(N)=O)N(C)C(=O)[C@H](CC(C)C)NC(=O)[C@H](CCCN)NC(=O)[C@H](CC(=O)O)NC(=O)[C@H](CC(N)=O)NC(=O)CCCNS(=O)(=O)c1ccc(Oc2ccccc2)cc1` ({Benzenesulfonyl(4-OPh)-GABA}-ND[Orn]L[NMeI][β3hP]-NH2), the Ratio IC50 in the experiment listed under Homo sapiens was determined as 189. The IC50 in experiment [1] came to 0.61 nM; against Collagenase 3, 134 nM.

As to `CSCC[C@H](NC(=O)[C@H](CC(C)C)NC(=O)[C@H](C)NC(=O)[C@H](CC(=O)O)NC(=O)[C@H](CC(N)=O)NC(=O)CCNS(=O)(=O)c1ccc(Oc2ccccc2)cc1)C(=O)N1CCC[C@H]1C(N)=O` ({Benzenesulfonyl(4-OPh)-βAla}-NDALMP-NH2), the Ratio IC50 in the experiment filed under Homo sapiens amounted to 51. Further, the IC50 in experiment [1] was 0.49 nM; against Collagenase 3 it was 114 nM.

As for `CC(C)C[C@H](NC(=O)[C@H](CCN)NC(=O)[C@H](CC(=O)O)NC(=O)[C@H](CC(N)=O)NC(=O)CCCNC(=O)c1ccc(Oc2ccccc2)cc1)C(=O)N(C)[C@@H](CCC(=O)O)C(=O)N1CCC[C@H]1CC(N)=O` ({Benzoyl(4-OPh)-GABA}-ND[Dab]L[NMeE][β3hP]-NH2), the Ratio IC50 in the experiment filed under Homo sapiens was found to be 27200. In addition, the IC50 against Collagenase 3 came to 2000 nM.

Regarding `CSCC[C@H](NC(=O)[C@H](CC(C)C)NC(=O)[C@H](C)NC(=O)[C@H](CC(=O)O)NC(=O)[C@H](CC(N)=O)NC(=O)CCCNS(=O)(=O)c1ccc(-c2ccccc2)cc1)C(=O)N1CCC[C@H]1C(N)=O` ({Benzenesulfonyl(4-Ph)-GABA}-NDALMP-NH2), in the experiment filed under Homo sapiens, the Ratio IC50 turned out to be 5. The IC50 in experiment [1] is 9.2 nM; at Collagenase 3, 1120 nM.

Consider `CC[C@H](C)[C@@H](C(=O)N1CCC[C@H]1CC(N)=O)N(C)C(=O)[C@H](CC(C)C)NC(=O)[C@H](CN)NC(=O)[C@H](CC(=O)O)NC(=O)[C@H](CC(N)=O)NC(=O)CCCNS(=O)(=O)c1ccc(Oc2ccccc2)cc1` ({Benzenesulfonyl(4-OPh)-GABA}-ND[Dap]L[NMeI][β3hP]-NH2), for which the Ratio IC50 in the experiment listed under Homo sapiens stood at 977. For the same compound, the IC50 came out at 0.13 nM in experiment [1] and 274 nM on Collagenase 3.

As to `CC[C@H](C)[C@@H](C(=O)N1CCC[C@H]1CC(N)=O)N(C)C(=O)[C@H](CC(C)C)NC(=O)[C@H](CCN)NC(=O)[C@H](CC(=O)O)NC(=O)[C@H](CC(N)=O)NC(=O)CCCNS(=O)(=O)c1ccc(Oc2ccccc2)cc1` ({Benzenesulfonyl(4-OPh)-GABA}-ND[Dab]L[NMeI][β3hP]-NH2), in the experiment filed under Homo sapiens, the Ratio IC50 was found to be 6010. The IC50 was found to be 0.09 nM in experiment [1] and 443 nM at Collagenase 3.

Consider `CC(C)C[C@H](NC(=O)[C@H](CCN)NC(=O)[C@H](CC(=O)O)NC(=O)[C@H](CC(N)=O)NC(=O)CCCNC(=O)c1ccc(Oc2ccc(F)cc2)cc1)C(=O)N(C)[C@@H](CCC(=O)O)C(=O)N1CCC[C@H]1CC(N)=O` ({X2-GABA}-ND[Dab]L[NMeE][β3hP]-NH2), for which, in the experiment listed under Homo sapiens, the Ratio IC50 is 40700. Besides, the IC50 in experiment [1] stood at 0.11 nM; against Collagenase 3, 1290 nM.

Regarding `CSCC[C@@H](C(=O)N1CCC[C@H]1C(N)=O)N(C)C(=O)[C@H](CC(C)C)NC(=O)[C@H](C)NC(=O)[C@H](CC(=O)O)NC(=O)[C@H](CC(N)=O)NC(=O)CCCNS(=O)(=O)c1ccc(Oc2ccccc2)cc1` ({Benzenesulfonyl(4-OPh)-GABA}-NDAL[NMeM]P-NH2), the Ratio IC50 in the experiment filed under Homo sapiens was determined as 57. Moreover, the IC50 was 0.128 nM in experiment [1] and 7 nM at Collagenase 3.

For the compound `CSCC[C@H](NC(=O)[C@H](CC(C)C)NC(=O)[C@H](C)NC(=O)[C@H](CC(=O)O)NC(=O)[C@H](CC(N)=O)NC(=O)CCCCS(=O)(=O)c1ccc(Oc2ccccc2)cc1)C(=O)N1CCC[C@H]1C(N)=O` (X1-NDALMP-NH2), the Ratio IC50 in the experiment filed under Homo sapiens turned out to be 69. Further, the IC50 in experiment [1] was 0.089 nM; at Collagenase 3 it was 57 nM.

On to `CSCC[C@H](NC(=O)[C@H](CC(C)C)NC(=O)[C@H](C)NC(=O)[C@H](CC(=O)O)NC(=O)[C@H](CC(N)=O)NC(=O)CCCCNS(=O)(=O)c1ccc(-c2ccccc2)cc1)C(=O)N1CCC[C@H]1C(N)=O` ({Benzenesulfonyl(4-Ph)-Ava}-NDALMP-NH2), for which the Ratio IC50 in the experiment listed under Homo sapiens was 12. In addition, the IC50 in experiment [1] amounted to 2.9 nM; against Collagenase 3 it was 1710 nM.

With `CC[C@H](C)[C@@H](C(=O)N1CCC[C@H]1C(N)=O)N(C)C(=O)[C@H](CC(C)C)NC(=O)[C@H](C)NC(=O)[C@H](CC(=O)O)NC(=O)[C@H](CC(N)=O)NC(=O)CCCNS(=O)(=O)c1ccc(Oc2ccccc2)cc1` ({Benzenesulfonyl(4-OPh)-GABA}-NDAL[NMeI]P-NH2), the Ratio IC50 in the experiment filed under Homo sapiens came out at 186. Besides, the IC50 in experiment [1] is 0.097 nM; at Collagenase 3 it was 16 nM.

Turning to `CSCC[C@@H](C(=O)N1CCC[C@H]1CC(N)=O)N(C)C(=O)[C@H](CC(C)C)NC(=O)[C@H](C)NC(=O)[C@H](CC(=O)O)NC(=O)[C@H](CC(N)=O)NC(=O)CCCNS(=O)(=O)c1ccc(Oc2ccccc2)cc1` ({Benzenesulfonyl(4-OPh)-GABA}-NDAL[NMeM][β3hP]-NH2), the Ratio IC50 in the experiment listed under Homo sapiens came to 43. In addition, the IC50 in experiment [1] was 0.044 nM; on Collagenase 3 it was 5.8 nM.
